Measured values: patent publication US20250099420A1, “SMALL MOLECULE MODULATORS OF GPR139 COMPLEX” (University of Florida Research Foundation, Incorporated, priority 2022, published 2025)
Where two headings read alike, the source gives them in different places.

Legend:
parental HEK cells = experiment: HEK parental Agonist Counterscreen Assay (non-transfected cells); assay type: cell-based; conditions: for Averaged Max % Response (±St. Dev.): activity relative to known control
From the text: The high control for the agonist counterscreen was Forskolin not acetylcholine.

GPR139 = target: T1, GPR139 (Homo sapiens, UniProt Q6DWJ6); experiment: GPR139 Agonist titration / agonist counterscreen assay (calcium detection, HEK-GPR139 cells); assay type: cell-based; design: expressed in transfected cells; host or cells: HEK Aequorin cells, Maxcyte transient transfection; conditions: GPR139 Agonist Activity; for EC50: read-out: EC50; for Averaged Max % Response (±St. Dev.): activity relative to known control
T1 sequence (Q6DWJ6 1-353): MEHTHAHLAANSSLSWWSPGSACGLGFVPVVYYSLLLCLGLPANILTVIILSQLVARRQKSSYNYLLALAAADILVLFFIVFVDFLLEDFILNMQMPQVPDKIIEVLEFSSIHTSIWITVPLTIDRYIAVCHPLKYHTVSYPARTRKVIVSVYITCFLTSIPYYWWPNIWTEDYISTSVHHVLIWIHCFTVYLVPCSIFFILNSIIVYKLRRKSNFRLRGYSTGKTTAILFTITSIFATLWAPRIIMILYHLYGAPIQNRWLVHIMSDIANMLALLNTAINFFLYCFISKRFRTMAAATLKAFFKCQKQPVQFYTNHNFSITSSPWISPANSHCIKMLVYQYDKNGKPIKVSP
Method: GPR activity was assessed using a calcium detection assay. […] Negative control samples were treated with DMSO. […] Intracellular calcium was measured using Calcium 5.

[1] = Homo sapiens, HEK293, HEK Agonist Activity section of Table 4 (parental HEK counterscreen)
[2] = HEK Agonist Activity section of Table 4 (parental HEK counterscreen)
[3] = values printed in E-notation without unit

| SMILES | Lipophilic Efficiency (logD) (parental HEK cells; HEK Agonist Activity section) | Lipophilic Efficiency (logP) (parental HEK cells; HEK Agonist Activity section) | Efficiency Ligand (GPR139) | Hill Slope (GPR139) | Lipophilic Efficiency (logD) (GPR139) | Lipophilic Efficiency (logP) (GPR139) | EC50 (GPR139; HEK-GPR139 cells) [nM] | Averaged Max % Response (±St. Dev.) (GPR139) [%] | Lipophilic Efficiency (logD) (parental HEK cells; HEK Agonist Activity) | Lipophilic Efficiency (logP) (parental HEK cells; HEK Agonist Activity) | Lipophilic Efficiency (logD) (GPR139; based on logD) | Lipophilic Efficiency (logP) (GPR139; based on logP) | Efficiency Ligand (GPR139; ligand efficiency) | EC50 (GPR139; [3]) [nM] | Hill Slope (GPR139; fitted dose-response curve) | Averaged Max % Response (±St. Dev.) (parental HEK cells; HEK Agonist Activity section) [%] | EC50 (parental HEK cells; [1]) [nM] | EC50 (parental HEK cells; [2]) [nM] | Averaged Max % Response (±St. Dev.) (parental HEK cells; HEK Agonist Activity) [%] | EC50 (parental HEK cells; Homo sapiens, HEK293, HEK Agonist Activity, parental non-transfected HEK cells) [nM] |
| --- | --- | --- | --- | --- | --- | --- | --- | --- | --- | --- | --- | --- | --- | --- | --- | --- | --- | --- | --- | --- |
| Cc1cccc(C(=O)NNC(=O)C(C)Oc2ccc(O)cc2O)c1 (stereo not shown) [SR-01000410744] |  |  |  |  |  |  |  | 114.68 ± 11.76 | 0.98 | 0.95 | 5.27 | 5.24 | 0.54 | < 0.517 |  |  |  |  | 17.10 ± 14.93 | > 10200 |
| CCCCCCC(=O)NNC(=O)c1c(O)c2ccccc2n(CCC)c1=O [SR-01000360839] | 4.41 | 2.59 | 0.28 | 1.91 | 4.95 | 3.13 | 4100 | 57.17 ± 6.17 |  |  |  |  |  |  |  | 0.18 ± 6.80 |  | > 14100 |  |  |
| COc1ccc(NC(=O)NC(O)(O)c2cccc(C(C)=O)c2)cc1 [SR-01000428888] | 0.38 | 0.38 | 0.38 | 0.88 | 2.10 | 2.10 | 313 | 105.90 ± 33.97 |  |  |  |  |  |  |  | −2.45 ± 12.32 | > 16400 |  |  |  |
| Cc1ccc(CCC(=O)NNC(=O)CCc2ccccc2)c(Br)c1 [SR-01000313193] | 1.40 | 1.39 | 0.36 | 1.19 | 2.69 | 2.69 | 719 | 90.41 ± 15.26 |  |  |  |  |  |  |  | 8.61 ± 6.03 | > 14100 |  |  |  |

Continued, in another order:

| Lipophilic Efficiency (logD) (parental HEK cells; HEK Agonist Activity section) | Lipophilic Efficiency (logP) (parental HEK cells; HEK Agonist Activity section) | Efficiency Ligand (GPR139) | Hill Slope (GPR139) | Lipophilic Efficiency (logD) (GPR139) | Lipophilic Efficiency (logP) (GPR139) | EC50 (GPR139; HEK-GPR139 cells) [nM] | Averaged Max % Response (±St. Dev.) (GPR139) [%] | Lipophilic Efficiency (logD) (parental HEK cells; HEK Agonist Activity) | Lipophilic Efficiency (logP) (parental HEK cells; HEK Agonist Activity) | Lipophilic Efficiency (logD) (GPR139; based on logD) | Lipophilic Efficiency (logP) (GPR139; based on logP) | Efficiency Ligand (GPR139; ligand efficiency) | EC50 (GPR139; [3]) [nM] | Hill Slope (GPR139; fitted dose-response curve) | SMILES | Averaged Max % Response (±St. Dev.) (parental HEK cells; HEK Agonist Activity section) [%] | EC50 (parental HEK cells; [1]) [nM] | EC50 (parental HEK cells; [2]) [nM] | Averaged Max % Response (±St. Dev.) (parental HEK cells; HEK Agonist Activity) [%] | EC50 (parental HEK cells; Homo sapiens, HEK293, HEK Agonist Activity, parental non-transfected HEK cells) [nM] |
| --- | --- | --- | --- | --- | --- | --- | --- | --- | --- | --- | --- | --- | --- | --- | --- | --- | --- | --- | --- | --- |
| 0.98 | 0.97 | 0.33 | 0.63 | 2.50 | 2.49 | 438 | 105.27 ± 9.38 |  |  |  |  |  |  |  | O=C(CN1C(=O)OC(O)(c2ccc(Cl)cc2Cl)C1=O)Nc1ccccc1Cl (stereo not shown) [SR-01000062419] | 19.92 ± 2.49 | > 14500 |  |  |  |
| 2.27 | 2.27 | 0.35 | 0.92 | 3.97 | 3.97 | 281 | 112.56 ± 16.12 |  |  |  |  |  |  |  | O=C(CN1CCCN(Cc2ccc(F)cc2Cl)C1=O)NC1CCCCC1 [SR-01000146448] | 10.11 ± 11.28 |  | > 14100 |  |  |
| 0.79 | 0.79 | 0.35 | 0.64 | 1.87 | 1.86 | 1200 | 67.60 ± 3.63 |  |  |  |  |  |  |  | CCN1CCCc2cc(CCNC(=O)Nc3ccccc3)ccc21 [SR-01000923250] | −2.96 ± 8.90 | > 14100 |  |  |  |
| 2.13 | 2.13 |  |  |  |  |  | 114.03 ± 9.34 |  |  | 3.89 | 3.89 | 0.36 | 245 | 0.51 | CC(NC(=O)CN1CCN(Cc2ccc(Cl)cc2)C1=O)c1ccccc1 (stereo not shown) [SR-01000105214] | −5.28 ± 2.10 | > 14100 |  |  |  |
| 1.51 | 1.51 | 0.30 | 0.73 | 2.72 | 2.72 |  | 79.66 ± 15.90 |  |  |  |  |  |  |  | Cc1ccc(CN2CCN(CC(=O)NCCc3ccc(Cl)cc3)C2=O)c(Cl)c1 [SR-01000125626] | −27.02 ± 6.51 | > 14100 |  |  |  |
